Measured values published in US7271171B2, “Adenosine A3 receptor modulators” (King Pharmaceuticals Research and Development, Inc., priority 1998, dated 2007).
Read-outs that look alike come from different tables or passages of the source.

Legend:
[1] = biological target: T1, rA2A adenosine receptor (Rattus norvegicus, UniProt P30543); experiment: Rat A2A adenosine receptor binding assay, [3H]SCH58261 displacement, rat striatum membranes; conditions: rat striatum membranes, [3H]SCH58261; read-out: rA2A (Ki)
T1 construct: membranes of rat striatum (80-100 μmg of protein/assay); from tissue; host or cells: striatum of male Wistar rats
T1 sequence (P30543 whole entry): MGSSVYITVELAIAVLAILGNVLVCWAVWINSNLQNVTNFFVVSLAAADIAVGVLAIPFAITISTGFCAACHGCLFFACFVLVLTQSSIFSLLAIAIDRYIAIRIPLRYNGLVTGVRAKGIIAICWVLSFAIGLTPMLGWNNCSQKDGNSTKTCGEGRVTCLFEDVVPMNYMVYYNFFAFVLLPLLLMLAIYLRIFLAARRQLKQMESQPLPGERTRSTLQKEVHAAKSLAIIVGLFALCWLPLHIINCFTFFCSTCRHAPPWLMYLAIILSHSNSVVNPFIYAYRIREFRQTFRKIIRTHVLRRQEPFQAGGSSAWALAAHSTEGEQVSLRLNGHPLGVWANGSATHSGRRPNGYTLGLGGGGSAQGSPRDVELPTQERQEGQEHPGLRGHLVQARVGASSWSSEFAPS
Procedure: (§4) Male Wistar rats (200-250 g) were decapitated and the whole brain and striatum dissected on ice. […] The homogenate was centrifuged at 48,000 for 10 min, and the pellet was resuspended in the same buffer containing 2 IU/mL adenosine deaminase. After 30 min incubation at 37° C., the membranes were centrifuged and pellets were stored at −80° C. Prior to freezing, an aliquot of homogenate was removed for protein assay with bovine albumin as reference standard. Binding assays were performed on rat brain and striatum membranes respectively, in the presence of 10 mM MgCl2 at 25° C.
(§5) Separation of bound from free radio ligand was performed by rapid filtration through Whatman GF/B filters which were washed three times with ice-cold buffer. Filter bound radioactivity was measured by scintillation spectrometry after addition of 5 mL of Aquassure. […] Ki values were calculated from the Cheng-Prusoff equation. All binding data were analyzed using the nonlinear regression curve-fitting computer program LIGAND.

[2] = biological target: T2, human recombinant A3 adenosine receptor (Homo sapiens, UniProt P0DMS8); experiment: Human cloned A3 adenosine receptor binding assay, [125I]AB-MECA, HEK-293 membranes; set-up: USA; host or cells: HEK-293
T2 sequence (P0DMS8 1-318): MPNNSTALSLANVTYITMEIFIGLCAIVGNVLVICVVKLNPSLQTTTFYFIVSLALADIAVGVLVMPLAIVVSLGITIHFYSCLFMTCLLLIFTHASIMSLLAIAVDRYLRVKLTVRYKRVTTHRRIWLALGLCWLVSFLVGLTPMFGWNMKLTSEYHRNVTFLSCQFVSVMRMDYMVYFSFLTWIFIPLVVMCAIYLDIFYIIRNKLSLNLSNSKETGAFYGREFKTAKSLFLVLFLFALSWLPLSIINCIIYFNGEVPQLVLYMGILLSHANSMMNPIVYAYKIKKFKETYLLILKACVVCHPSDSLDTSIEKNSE

[3] = biological target: T3, rA1 adenosine receptor (Rattus norvegicus, UniProt P25099); experiment: Rat A1 adenosine receptor binding assay, [3H]CHA displacement, rat brain membranes
T3 construct: membranes of rat brain (150-200 μg- of protein/assay); from tissue; host or cells: whole brain of male Wistar rats
T3 sequence (P25099 1-326): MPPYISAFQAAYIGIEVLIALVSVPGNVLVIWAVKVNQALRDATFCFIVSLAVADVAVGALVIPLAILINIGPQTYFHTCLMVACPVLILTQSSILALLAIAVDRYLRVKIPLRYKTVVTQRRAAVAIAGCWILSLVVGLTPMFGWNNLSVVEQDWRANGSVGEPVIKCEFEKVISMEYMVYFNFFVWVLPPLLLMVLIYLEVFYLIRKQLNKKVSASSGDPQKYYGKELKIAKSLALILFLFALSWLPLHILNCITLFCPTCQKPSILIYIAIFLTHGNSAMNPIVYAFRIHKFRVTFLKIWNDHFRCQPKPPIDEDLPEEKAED
Procedure: as §4, §5

[4] = biological target: T3, rA1 adenosine receptor; conditions: values taken from Kim et al., J. Med. Chem. 1996; cited from earlier work
[5] = biological target: T1, rA2A adenosine receptor; conditions: values taken from Kim et al., J. Med. Chem. 1996; cited from earlier work
[6] = biological target: T4, human recombinant A2A adenosine receptors (Homo sapiens, UniProt P29274); experiment: Human cloned A2A receptor binding, [3H]-SCH58261, CHO cells; conditions: read-out: hA2A (Ki)
T4 construct: expressed in transfected cells; host or cells: CHO
T4 sequence (P29274 whole entry): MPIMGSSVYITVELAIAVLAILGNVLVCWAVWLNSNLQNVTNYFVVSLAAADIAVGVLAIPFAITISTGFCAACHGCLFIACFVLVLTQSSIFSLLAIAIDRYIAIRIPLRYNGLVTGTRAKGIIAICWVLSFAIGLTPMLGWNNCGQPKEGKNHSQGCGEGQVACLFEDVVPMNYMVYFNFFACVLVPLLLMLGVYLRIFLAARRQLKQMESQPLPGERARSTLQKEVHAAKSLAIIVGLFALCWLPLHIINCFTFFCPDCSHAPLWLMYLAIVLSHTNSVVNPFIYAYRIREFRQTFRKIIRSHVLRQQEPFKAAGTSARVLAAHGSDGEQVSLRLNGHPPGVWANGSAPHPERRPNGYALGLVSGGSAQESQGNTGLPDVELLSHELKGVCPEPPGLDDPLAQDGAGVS
Procedure: (§1) The expression of the human A1, A2A, A2B and A3 receptors in CHO cells has been previously described (Klotz et al., 1998). The cells are grown adherently and maintained in Dulbecco's modified Eagle's medium with nutrient mixture F12 without nucleosides at 37 ° C. in 5% CO2/95% air. Cells are split two or three times weekly and then the culture medium is removed for membrane preparations. The cells are washed with phosphate-buffered saline and scraped off flasks in ice cold hypotonic buffer (5 mM Tris HCl, 2 mM EDTA, pH 7.4). The cell suspension is homogenized with Polytron and the homogenate is centrifuged for 30 min. at 48,000 g. The membrane pellet is re-suspended in 50 mM Tris HCl buffer at pH 7.4 for A1 adenosine receptors, in 50 mM Tris HCl, 10 mM MgCl2 at pH 7.4 for A2A adenosine receptors, in 50 mM Tris HCl, 10 mM MgCl2, 1 mM EDTA at pH 7.4 for A3 adenosine receptors and are utilized for binding and adenylate cyclase assays.
(§2) Displacement experiments are performed for 120 min. at 25° C. in 0.20 mL of buffer containing 1 nM [^3H]-DPCPX, 20 μL of diluted membranes (50 μg of protein/assay) and at least 6-8 different concentrations of examined compounds. Non-specific binding is determined in the presence of 10 μM of CHA and this is always 10% of the total binding. Binding of [^3H]-SCH58261 to CHO cells transfected with the human recombinant A2A adenosine receptors (50 μg of protein/assay) was performed according to Varani et al. (Varani, K; Cacciari, B.; Baraldi, P. G.; Dionisotti, S.; Ongini, E.; Borea, P. A., “Binding affinity of adenosine receptor agonists and antagonists at human cloned […] adenosine receptors,” Life Sci., 63, 81-87, 1998). In competition studies, at least 6-8 different concentrations of compounds are used and non-specific binding is determined in the presence of 50 μM NECA for an incubation time of 60 min. at 25° C.

[7] = biological target: T5, human recombinant A1 adenosine receptor (Homo sapiens, UniProt P30542); experiment: Human cloned A1 receptor binding, [3H]-DPCPX, CHO cells; conditions: read-out: hA1 (Ki)
T5 construct: expressed in transfected cells; host or cells: CHO
T5 sequence (P30542 1-326): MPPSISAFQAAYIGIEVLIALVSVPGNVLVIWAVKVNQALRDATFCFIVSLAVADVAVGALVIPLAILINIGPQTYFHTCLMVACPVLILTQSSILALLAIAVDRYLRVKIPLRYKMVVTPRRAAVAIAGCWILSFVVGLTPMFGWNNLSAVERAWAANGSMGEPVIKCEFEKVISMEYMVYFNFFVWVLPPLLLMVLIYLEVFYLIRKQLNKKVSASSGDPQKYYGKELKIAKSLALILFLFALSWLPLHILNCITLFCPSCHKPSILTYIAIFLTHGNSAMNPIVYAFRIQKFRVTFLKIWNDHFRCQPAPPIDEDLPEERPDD
Procedure: as §1
Binding of [^3H]-DPCPX to CHO cells transfected with the human recombinant A1 adenosine receptor is performed according to the method previously described by Klotz and coworkers (Klotz, K. N.; Cristalli, G.; Grifantini, M.; Vittori, S.; Lohse, M. J., “Photoaffinity labeling of A1 adenosine receptors,” J. Biol. Chem., 260, 14659-14664, 1985).
as §2

[8] = Solubility in water; assay type: physicochemical
[9] = biological target: T6, adenosine A3 receptor (Homo sapiens, UniProt P0DMS8); experiment: Adenylate cyclase assay: block of agonist-induced inhibition of cAMP production; assay type: biochemical; conditions: FIG. 2, comparison in words
T6 construct: expressed in transfected cells; host or cells: CHO
T6 sequence (P0DMS8 1-318): T2 sequence (P0DMS8 1-318)
Procedure: as §1
Membrane preparation is suspended in 0.5 mL of incubation mixture (50 mM Tris HCl, MgCl2 10 mM, EDTA, 1 mM, pH 7.4) containing GTP 5 µM, 0.5 mM 4-(3-buthoxy-4-methoxybenzyl)-2-imidazolidinone (Ro 20-1274) as phosphodiesterase inhibitor, 2.0 IU/mL adenosine deaminase and pre-incubated for 10 min. in a shaking bath at 37° C. […]

[10] = biological target: T7, human recombinant A2B adenosine receptors (Homo sapiens, UniProt P29275); experiment: Human cloned A2B receptor binding, [3H]-DPCPX, HEK-293 cells; conditions: read-out: hA2B (Ki)
T7 construct: host or cells: HEK-293
T7 sequence (P29275 1-332): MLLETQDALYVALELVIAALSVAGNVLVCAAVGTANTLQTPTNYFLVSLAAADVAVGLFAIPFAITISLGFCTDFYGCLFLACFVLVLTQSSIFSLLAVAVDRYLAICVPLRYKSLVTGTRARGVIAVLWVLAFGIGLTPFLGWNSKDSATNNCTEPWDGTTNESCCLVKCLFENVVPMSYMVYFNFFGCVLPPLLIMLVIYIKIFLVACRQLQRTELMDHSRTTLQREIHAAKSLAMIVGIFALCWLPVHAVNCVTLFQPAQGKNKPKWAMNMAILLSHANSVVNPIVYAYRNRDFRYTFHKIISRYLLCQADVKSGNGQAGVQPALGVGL
Procedure: Binding of [^3H]-DPCPX to HEK-293 cells (Receptor Biology, Inc., Beltsville, Md.) transfected with the human recombinant A2B adenosine receptors is performed essentially to the method described by Varani and coworkers (Mol. Pharmacol.). In particular, assays are carried out for 60 min. at 25° C. in 0.1 mL of 50 mM Tris HCl Buffer, 10 mM MgCl2, 1 mM EDTA, 0.1 mM benzamidine pH 7.4, 2 IU/ml adenosine deaminase containing 40 nM [^3H]-DPCPX, diluted membranes (20 µg of protein/assay) and at least 6-8 different concentration of tested compounds. Non-specific binding is determined in the presence of 100 μM of NECA and is always 30% of the total binding.

[11] = biological target: T8, A3 receptor in Jurkat cell membranes (Homo sapiens, UniProt P0DMS8)
T8 sequence (P0DMS8 1-318): T2 sequence (P0DMS8 1-318)

[12] = system: SKN-Be2C cell membranes; experiment: [125I]-ABMECA binding on tumor cell line membranes; conditions: 0.5 nM radioligand
Procedure: (§3) A series of binding experiments were performed on various tumor cell lines, using 0.5 nM [^125I]-ABMECA, with unspecific binding determined in the presence of 50 μM R-PIA or 200 μM NECA, on cell membranes of the cell lines. Specific binding was determined by substracting unspecific binding from total binding. The cell lines were the HL 60, NB4, SKN-MC, SKN-Be2C, SKN-SH and JURKAT cell lines.

[13] = system: SKN-MC cell membranes; experiment: [125I]-ABMECA binding on tumor cell line membranes; conditions: 0.5 nM radioligand
Procedure: as §3

[14] = system: NB4 cell membranes; experiment: [125I]-ABMECA binding on tumor cell line membranes; conditions: NB4, 0.5 nM radioligand
Procedure: as §3

[15] = system: SKN-SH cell membranes; experiment: [125I]-ABMECA binding on tumor cell line membranes; conditions: 0.5 nM radioligand
Procedure: as §3

[16] = biological target: T9, human A3 receptors expressed in HEK 293 cells (Homo sapiens, UniProt P0DMS8); conditions: saturation curve, FIG. 1, n=3
T9 sequence (P0DMS8 1-318): T2 sequence (P0DMS8 1-318)

[17] = system: JURKAT cell membranes; experiment: [125I]-ABMECA binding on tumor cell line membranes; set-up: species or system human; conditions: 0.5 nM radioligand
Procedure: as §3

[18] = system: HL 60 cell membranes; experiment: [125I]-ABMECA binding on tumor cell line membranes; set-up: species or system human; conditions: HL 60, 0.5 nM radioligand
Procedure: as §3

CC(C)CCn1cc2c(nc(NC(=O)Cc3ccccc3)n3nc(-c4ccco4)nc23)n1 [Compound 58, 5-[(Benzyl)carbonyl]amino-8-isopentyl-2-(2-furyl)-pyrazolo[4,3.e]1,2,4-triazolo[1,5-c]pyrimidine]
Ki [1]: 323 nM | melting point: 144 to 145 °C | Ki ([2]; HEK-293 membranes, [125I]AB-MECA, read-out: hA3 (Ki)): 81.1 nM | rA1/hA3 ([2]; selectivity ratio of Ki values): 4.6 | rA2A/hA3 ([2]; selectivity ratio of Ki values): 4 | Ki [3]: 373 nM

O=C(Cc1ccccc1)Nc1nc2ccc(Cl)cc2c2nc(-c3ccco3)nn12 [MRS 1220]
Ki [4]: 305 ± 51 nM | Ki [5]: 52 ± 8.8 nM

Cl.Cn1cc2c(nc(NC(=O)Nc3ccncc3)n3nc(-c4ccco4)nc23)n1 [Compound 107, N-[2-(2-furyl)-8-methyl-8H-pyrazolo[4,3-e][1,2,4]triazolo[1,5-c]pyrimidin-5-yl]-N′-pyridin-4-ylurea hydrochloride]
Ki ([6]; hydrochloride): 100 nM | Ki ([7]; hydrochloride): 350 nM | solubility in water [8]: soluble in water | potency of adenosine A3 antagonism (block of C1-IB-MECA induced inhibition of cAMP production) [9]: comparable | Ki ([10]; hydrochloride): 250 nM

Cn1cc2c(nc(NC(=O)Nc3ccncc3)n3nc(-c4ccco4)nc23)n1 [Compound 106, N-[2-(2-furyl)-8-methyl-8H-pyrazolo[4,3-e][1,2,4]triazolo[1,5-c]pyrimidin-5-yl]-N′-pyridin-4-yl urea]
Ki [6]: 60 nM | Ki [7]: 250 nM | potency of adenosine A3 antagonism (block of C1-IB-MECA induced inhibition of cAMP production) [9]: comparable | Ki [10]: 200 nM

CNC(=O)[C@H]1O[C@@H](n2cnc3c(NCc4ccc(N)c([125I])c4)ncnc32)[C@H](O)[C@@H]1O [[^125I]AB-MECA, [^125I]N^6-(4-amino-3-iodobenzyl)adenosine-5′N-methyluronamide]
Bmax (fmol/mg protein) / density of A3 receptor detected ([11]; FIG. 3): approximately 300 fmol/mg protein | Bmax (fmol/mg protein) / density of A3 receptor detected ([11]; FIG. 3, listed as [^125I]-ABMECA): 290 fmol/mg protein | Percent Specific Binding [12]: 24% | Specific Binding (cpm) [12]: 1415 cpm | Percent Specific Binding [13]: 17% | Specific Binding (cpm) [13]: 1308 cpm | Percent Specific Binding [14]: 19% | Specific Binding (cpm) [14]: 637 cpm | Percent Specific Binding [15]: 3% | Specific Binding (cpm) [15]: 91 cpm | Bmax value [16]: 62±1 fmol/mg protein | Percent Specific Binding [17]: 38% | Specific Binding (cpm) [17]: 2846 cpm | Percent Specific Binding [18]: 20% | Specific Binding (cpm) [18]: 693 cpm
